SMILES strings stand for the structures. Read-outs that look alike come from different tables or passages of the source.

Series [1] is described as follows: Pharmacokinetics in mouse (oral / intravenous). The class given is in vivo. The note with it: female CD1 mice; for clearance / Vd: mouse; for Vd: read-out: Vd ss. As to the method:
Female CD1 mice (N=3) received a single oral (gavage) or a single intravenous (bolus) injection of compound. […] Consecutive blood samples were taken sub-lingually under isofluorane inhalation from animals after 0.083 (IV), 0.25, 0.5, 1, 2, 4, 6 and 24 h and were further processed to obtain plasma. Samples were protein precipitated and analysed by LC/MS/MS.

For series [2], the target named is Kv11.1 (hERG) ion channel (Homo sapiens (Human), UniProt Q12809). Kind of series: hERG patch clamp in Kv11.1 transfected HEK293 cells. The class given is cell-based. As to the method:
Inhibition of the ion channel hErg (or Kv11.1) current causes QT interval prolongation resulting in potentially fatal ventricular tachyarrhythmia called Torsade de Pointes.
hERG ion channel activity was assessed using a patch clamp technique in stable Kv11.1 (hERG) transfected human embryonic kidney cell line (HEK293). Whole cell recordings were carried out with an automated patch clamp device Patchliner™ from Nanion Technologies, Munich following manufacturer recommendation. Different concentrations of the test compound or reference, quinidine, were applied to whole cells suspension and current was measured using a pulse pattern with fixed amplitudes.

In series [3] the target is Full length SHP2 protein (Recombinant Human SHP-2) (Homo sapiens (Human), UniProt Q06124). Kind of series: SHP2 biochemical assay (DiFMUP substrate, activating peptide IRSI_2pY).
Method: The inhibition of SHP2 by compounds of the invention was monitored using the surrogate substrate DiFMUP after protein activation by a peptide bearing two appropriately spaced phosphotyrosine. […] The generation of the DiFMU product by activated SHP2 was monitored through Fluorescence measurement with a PerkinElmer Envision reader. The inhibitor dose response curves were analyzed with Genedata Screener.
The target in series [4] is auto-activated mutant protein SHP2 E76K (Homo sapiens (Human), UniProt Q06124, E76K). Kind of series: SHP2 active mutant E76K biochemical assay with and without activating peptide.
Method: The inhibition of SHP2 by compounds of the invention was monitored using the surrogate substrate DiFMUP after protein activation by a peptide bearing two appropriately spaced phosphotyrosine. Full length SHP2 protein (Recombinant HumanSHP-2, E. coli derived Ser2Arg593, N-terminal 6His tag from R&D systems; 0.0.24 nM) was incubated with activating peptide, IRSI_2pY (New England Peptide, 140 nM) and DiFMUP (molecular probes, 80 uM) at RT in buffer (HEPES pH 7.2 60 mM, DDT 5 mM, KCl 75 mM, NaCl 75 mM, EDTA 1 mM, Tween 20 0.05%) in presence of compound (10 concentrations range, top concentration 50 μM) for 60 min. The generation of the DiFMU product by activated SHP2 was monitored through Fluorescence measurement with a PerkinElmer Envision reader. The inhibitor dose response curves were analyzed with Genedata Screener.
Series [5] deals with pERK1/2 in KYSE520 cells. The experiment in a line: p-Erk cellular assay in KYSE520 (Mesoscale). It is filed as cell-based. Particulars: read-out: pERK1/2 in Cell KYSE520 IC50. As to the method: p-Erk Cellular Assay in KYSE520: The effect of SHP2 inhibitors on pERK level was assessed using phospho-specific antibody using Mesoscale quantification platform. For measuring change in pERK levels using mesoscale, 30,000 cells of KYSE520 cells were plated in 96-well tissue culture treated plate in 175 μl volume of media. After an overnight incubation at 37° C., various SHP2 inhibitors were added in different concentration to each well maintaining duplicate wells across plates and incubated with compounds for 2 h at 37° C. followed by a wash with ice cold PBS buffer. The cells were then lysed in lysis buffer and processed and analyzed for p-ERK/ERK as per manufacturer's instructions (Mesoscale discovery, cat No. […]-3).

[6] abbreviates: SHP-2 IC50 (nM) peptide, wild-type SHP-2, with activating peptide.
[7] abbreviates: SHP-2 biochemical assay IC50 (μM), activating peptide IRSI_2pY 140 nM, DiFMUP, 60 min.
Where [8] appears, read: with activating peptide IRSI_2pY 140 nM, read-out: SHP-2 E76Z IC50 (nM) peptide.
Where [9] appears, read: without activating peptide, read-out: SHP-2 E76Z IC50 (nM) No peptide.
Setting [10] is: activating peptide IRSI_2pY 140 nM, DiFMUP, 60 min, read-out: SHP-2 biochemical assay IC50.

Chain of Full length SHP2 protein (Recombinant Human SHP-2) (Q06124 2-593): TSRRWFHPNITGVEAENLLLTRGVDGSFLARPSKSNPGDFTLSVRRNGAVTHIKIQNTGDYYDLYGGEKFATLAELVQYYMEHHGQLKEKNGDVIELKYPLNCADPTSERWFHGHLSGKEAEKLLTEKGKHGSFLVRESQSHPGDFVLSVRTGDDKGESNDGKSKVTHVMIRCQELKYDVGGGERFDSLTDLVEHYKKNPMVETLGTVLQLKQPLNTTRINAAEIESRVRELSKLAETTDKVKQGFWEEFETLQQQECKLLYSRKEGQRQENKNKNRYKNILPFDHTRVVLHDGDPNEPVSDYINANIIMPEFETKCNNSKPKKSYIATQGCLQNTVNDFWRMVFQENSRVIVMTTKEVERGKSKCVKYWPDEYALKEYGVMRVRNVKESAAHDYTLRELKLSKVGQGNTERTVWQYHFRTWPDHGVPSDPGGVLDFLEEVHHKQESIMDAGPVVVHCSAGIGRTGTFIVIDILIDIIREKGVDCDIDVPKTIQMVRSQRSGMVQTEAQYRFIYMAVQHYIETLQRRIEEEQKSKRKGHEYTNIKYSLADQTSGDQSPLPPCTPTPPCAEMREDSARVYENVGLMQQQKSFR
Chain of auto-activated mutant protein SHP2 E76K (Q06124 whole entry E76K): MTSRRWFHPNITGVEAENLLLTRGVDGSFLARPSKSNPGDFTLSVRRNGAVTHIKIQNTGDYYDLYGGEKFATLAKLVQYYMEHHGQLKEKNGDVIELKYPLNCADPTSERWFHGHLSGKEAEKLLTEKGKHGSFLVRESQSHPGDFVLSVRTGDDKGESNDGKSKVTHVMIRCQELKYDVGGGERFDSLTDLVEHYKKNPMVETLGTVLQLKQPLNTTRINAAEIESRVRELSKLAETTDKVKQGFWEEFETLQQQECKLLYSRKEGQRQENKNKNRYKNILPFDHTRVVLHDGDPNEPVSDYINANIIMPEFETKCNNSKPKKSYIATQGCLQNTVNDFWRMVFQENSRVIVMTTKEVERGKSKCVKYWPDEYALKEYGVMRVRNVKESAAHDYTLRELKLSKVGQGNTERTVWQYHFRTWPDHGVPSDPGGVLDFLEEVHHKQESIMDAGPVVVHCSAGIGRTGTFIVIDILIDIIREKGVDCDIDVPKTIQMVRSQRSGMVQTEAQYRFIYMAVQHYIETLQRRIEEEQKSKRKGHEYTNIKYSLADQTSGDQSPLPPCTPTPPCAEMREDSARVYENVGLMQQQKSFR
Chain of Kv11.1 (hERG) ion channel (Q12809 whole entry): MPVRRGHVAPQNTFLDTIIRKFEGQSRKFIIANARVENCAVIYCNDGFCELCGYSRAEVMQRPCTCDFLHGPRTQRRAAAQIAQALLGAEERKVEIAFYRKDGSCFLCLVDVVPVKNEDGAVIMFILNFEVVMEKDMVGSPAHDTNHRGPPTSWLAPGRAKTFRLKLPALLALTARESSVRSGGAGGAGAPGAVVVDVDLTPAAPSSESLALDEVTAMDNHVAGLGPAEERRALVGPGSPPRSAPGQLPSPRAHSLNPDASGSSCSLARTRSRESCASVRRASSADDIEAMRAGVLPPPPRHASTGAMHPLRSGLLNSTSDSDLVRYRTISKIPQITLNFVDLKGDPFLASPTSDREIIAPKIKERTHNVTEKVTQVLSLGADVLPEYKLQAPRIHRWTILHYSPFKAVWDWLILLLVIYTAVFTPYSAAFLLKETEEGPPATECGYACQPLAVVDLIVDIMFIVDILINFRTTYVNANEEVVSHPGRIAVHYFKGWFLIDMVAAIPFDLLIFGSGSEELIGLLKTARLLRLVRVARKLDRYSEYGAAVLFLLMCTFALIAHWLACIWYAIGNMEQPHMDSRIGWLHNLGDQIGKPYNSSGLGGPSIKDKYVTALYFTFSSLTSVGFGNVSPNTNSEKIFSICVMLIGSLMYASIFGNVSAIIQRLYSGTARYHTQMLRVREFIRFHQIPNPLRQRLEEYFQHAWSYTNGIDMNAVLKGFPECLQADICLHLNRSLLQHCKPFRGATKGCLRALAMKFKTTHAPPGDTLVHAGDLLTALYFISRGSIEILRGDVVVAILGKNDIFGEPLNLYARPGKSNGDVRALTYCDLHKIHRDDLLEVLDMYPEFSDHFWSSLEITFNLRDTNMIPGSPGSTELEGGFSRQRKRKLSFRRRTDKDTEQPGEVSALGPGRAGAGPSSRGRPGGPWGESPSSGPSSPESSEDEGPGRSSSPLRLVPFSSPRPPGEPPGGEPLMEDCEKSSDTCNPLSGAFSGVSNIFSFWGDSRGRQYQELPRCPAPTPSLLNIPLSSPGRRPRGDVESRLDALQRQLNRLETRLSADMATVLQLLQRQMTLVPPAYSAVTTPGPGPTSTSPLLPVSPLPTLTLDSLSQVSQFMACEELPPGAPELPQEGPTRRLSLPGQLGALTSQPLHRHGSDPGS

For `CC1(N)CCN(c2cnc(-c3cccc(Cl)c3Cl)c(N)n2)CC1` [SHP-099, reference compound], in series [1] (in vivo), the clearance was 95 mL/min/kg and the Vd worked out at 5 L/kg.
For the compound `Cc1nc(N2CCC3(CC2)CO[C@@H](C)[C@H]3N)c(CO)nc1-c1cccc(Cl)c1Cl` [RMC-4550, reference compound], in series [2], the Ki is 600 nM. In series [1], the Fz is listed as 86%. Further, the Vd in series [1] (in vivo) was 6.1 L/kg. In series [1] (plasma, intravenous), this compound showed a clearance of 20 mL/min/kg.
With `[2H]C([2H])([2H])c1c(N2CCC3(CC2)Cc2ccccc2[C@H]3N)nc(C)n(-c2cccc(Cl)c2Cl)c1=O` [Compound 106, 6-[(1S)-1-amino-1,3-dihydrospiro[indene-2,4′-piperidin]-1′-yl]-3-(2,3-dichlorophenyl)-5-(2H3)methyl-2-methyl-3,4-dihydropyrimidin-4-one], the IC50 in series [3] (setting [6]) is 1.7 nM; in series [3] (setting [7]), 6 nM; in series [4] (setting [8]), 6.4 nM; in series [4] (setting [9]), 3.5 nM; in series [5] (Homo sapiens, KYSE-520, 2 h), 10 nM.
Regarding `Cc1c(N2CCC3(CC2)Oc2ccccc2[C@H]3N)nc(C)n(-c2cccc(Cl)c2Cl)c1=O` (single isomer, unassigned) [Compound 81b], the IC50 in series [3] (setting [6]) stood at 0.3 nM; in series [3] (setting [10]), 1.4 nM; in series [4] (SHP-2 E76Z IC50 (nM) No peptide, without activating peptide) it was 0.5 nM; in series [4] (SHP-2 E76Z IC50 (nM) peptide, with activating peptide IRSI_2pY 140 nM), 1.1 nM; in series [5] (Homo sapiens, KYSE-520, 2 h) it was 6.6 nM. Also, in series [1], the Fz is on record as 48%. In addition, the clearance in series [1] (plasma, intravenous) is 2.5 mL/min/kg. Also, the Vd in series [1] (plasma, intravenous) is 0.68 L/kg.
With `Cc1c(N2CCC3(CC2)Cc2ccccc2[C@H]3N)nc(N)n(-c2cccc(Cl)c2Cl)c1=O` [Compound 117, 2-amino-6-[(3S)-3-amino-1,3-dihydrospiro[indene-2,4′-piperidin]-1′-yl]-3-(2,3-dichlorophenyl)-5-methyl-3,4-dihydropyrimidin-4-one], the IC50 in series [3] (setting [10]) worked out at 15 nM; in series [5] (Homo sapiens, KYSE-520, 2 h), 6 nM. Also, the Ki in series [2] came to 2500 nM. In series [2] (human), the “Split between hErg and cell activity Ki (patch Clamp)/IC50 (KYSE)” value turned out to be 417.
In series [1], `Cc1nc(N2CCC3(CC2)CO[C@@H](C)[C@H]3N)cc(=O)n1-c1cccc(Cl)c1Cl` (single isomer, unassigned) [Compound 3b] registered a Fz of 85%. In series [1] (plasma, intravenous), the clearance is 8 mL/min/kg and the Vd is 2.77 L/kg.
`Cc1c(N2CCC3(CC2)Cc2ncccc2[C@H]3N)nc(C)n(-c2cccc(Cl)c2Cl)c1=O` (single isomer, unassigned) [Compound 66a]: the IC50 in series [3] (setting [6]) was 48 nM; in series [3] (setting [10]) it was 73 nM; in series [4] (setting [8]), 200 nM; in series [4] (setting [9]), 97 nM.
In the case of `Cc1c(F)ccc(-n2c(C)nc(N3CCC4(CC3)CO[C@@H](C)[C@H]4N)c(C)c2=O)c1Cl` [Compound 103, 6-((3S,4S)-4-Amino-3-methyl-2-oxa-8-aza-spiro[4.5]dec-8-yl)-3-(2-chloro-4-fluoro-3-methyl-phenyl)-2,5-dimethyl-3H-pyrimidin-4-one], the IC50 in series [3] (setting [10]) came to 67 nM; in series [5] (Homo sapiens, KYSE-520, 2 h) it was 2740 nM.
For `Cc1nc(N2CCC3(CCC3N)CC2)cc(=O)n1-c1cccc(Cl)c1Cl` (centres unmarked) [Compound 35, 6-{1-amino-7-azaspiro[3.5]nonan-7-yl}-3-(2,3-dichlorophenyl)-2-methyl-3,4-dihydropyrimidin-4-one], in that order: 560 nM and 600 nM.
For `COc1c(F)ccc(-n2c(C)nc(N3CCC4(CC3)Cc3ccccc3[C@H]4N)c(C)c2=O)c1F` [Compound 105, 6-[(1S)-1-amino-1,3-dihydrospiro[indene-2,4′-piperidin]-1′-yl]-3-(2,4-difluoro-3-methoxyphenyl)-2,5-dimethyl-3,4-dihydropyrimidin-4-one] the same measures were 6 nM and 10 nM.
`C[C@@H]1OCC2(CCN(c3cc(=O)n(-c4cccc(Cl)c4Cl)c(N)n3)CC2)[C@@H]1N` [Compound 5, 2-amino-6-[(3S,4S)-4-amino-3-methyl-2-oxa-8-azaspiro[4.5]decan-8-yl]-3-(2,3-dichlorophenyl)-3,4-dihydropyrimidin-4-one]: the IC50 in series [3] (setting [10]) worked out at 760 nM; in series [5] (Homo sapiens, KYSE-520, 2 h), 14500 nM.
Take `Cc1c(N2CCC3(CC2)Cc2ccccc2[C@H]3N)nc(C)n(-c2cccc(Cl)c2Cl)c1=O` (atropisomer, axis not shown) [Compound 74b, (3P)-6-[(1S)-1-amino-1,3-dihydrospiro[indene-2,4′-piperidin]-1′-yl]-3-(2,3-dichlorophenyl)-2,5-dimethyl-3,4-dihydropyrimidin-4-one]: the values for the IC50 in series [3] (setting [7]) and in series [5] (2 h) were 26 nM and 624 nM, respectively.
With `Cc1nc(N2CCC3(CCC[C@H]3N)CC2)cc(=O)n1-c1cccc(Cl)c1Cl` (single isomer, unassigned) [Compound 62b], the IC50 in series [3] (setting [7]) amounted to 81 nM; in series [5] (Homo sapiens, KYSE-520, 2 h), 526 nM.
Turning to `Cc1c(N2CCC(C)(CN)CC2)nc(C)n(-c2cccc(Cl)c2Cl)c1=O` [Compound 18, 6-[4-(aminomethyl)-4-methylpiperidin-1-yl]-3-(2,3-dichlorophenyl)-2,5-dimethyl-3,4-dihydropyrimidin-4-one], the IC50 in series [3] (setting [10]) came to 370 nM; in series [5] (Homo sapiens, KYSE-520, 2 h), 1320 nM.
In the case of `Cc1c(N2CCC3(CC2)Oc2cnccc2[C@H]3N)nc(C)n(-c2cccc(Cl)c2Cl)c1=O` (single isomer, unassigned) [Compound 80a], the IC50 in series [3] (setting [7]) is 1400 nM; in series [5] (Homo sapiens, KYSE-520, 2 h), > 10000 nM.
Take `Cc1c(N2CCC3(CC2)CO[C@@H](C)[C@H]3N)nc(C)n(-c2ccc(F)c(Cl)c2Cl)c1=O` [Compound 99, 6-((3S,4S)-4-Amino-3-methyl-2-oxa-8-aza-spiro[4.5]dec-8-yl)-3-(2,3-dichloro-4-fluoro-phenyl)-2,5-dimethyl-3H-pyrimidin-4-one]: the IC50 was 28 nM in series [3] (setting [10]) and 955 nM in series [5] (Homo sapiens, KYSE-520, 2 h).
For `Cc1c(N2CCC3(CC2)CO[C@@H](C)[C@H]3N)nc(C)n(-c2cccc(Br)c2Cl)c1=O` [Compound 95, 6-((3S,4S)-4-Amino-3-methyl-2-oxa-8-aza-spiro[4.5]dec-8-yl)-3-(3-bromo-2-chloro-phenyl)-2,5-dimethyl-3H-pyrimidin-4-one], in that order: 27 nM and 604 nM.
For `Cc1c(N2CCC3(CC2)Cc2ccccc2[C@H]3N)nc(C)n(-c2cccc(Br)c2Cl)c1=O` [Compound 104, 6-[(1S)-1-amino-1,3-dihydrospiro[indene-2,4′-piperidin]-1′-yl]-3-(3-bromo-2-chlorophenyl)-2,5-dimethyl-3,4-dihydropyrimidin-4-one], in that order: 5 nM and 26 nM.
For `Cc1c(N2CCC3(CCC[C@H]3N)CC2)nc(N)n(-c2cccc(Cl)c2Cl)c1=O` (single isomer, unassigned) [Compound 78d], the IC50 came out at 190 nM in series [3] (setting [7]) and 1330 nM in series [5] (Homo sapiens, KYSE-520, 2 h).
Take `Cc1c(N2CCC3(CC2)CO[C@@H](C)[C@H]3N)nc(C)n(-c2cccc(F)c2Cl)c1=O` [Compound 96, 6-((3S,4S)-4-Amino-3-methyl-2-oxa-8-aza-spiro[4.5]dec-8-yl)-3-(2-chloro-3-fluoro-phenyl)-2,5-dimethyl-3H-pyrimidin-4-one]: the IC50 in series [3] (setting [10]) worked out at 150 nM; in series [5] (Homo sapiens, KYSE-520, 2 h), 2000 nM.
Regarding `Cc1nc(N2CCC(N)(CO)CC2)cc(=O)n1-c1cccc(Cl)c1Cl` [Compound 29, 6-[4-amino-4-(hydroxymethyl)piperidin-1-yl]-3-(2,3-dichlorophenyl)-2-methyl-3,4-dihydropyrimidin-4-one], the IC50 turned out to be 510 nM in series [3] (setting [10]) and 2780 nM in series [5] (Homo sapiens, KYSE-520, 2 h).
For `Cc1c(N2CCC3(CC2)Cc2ccccc2[C@H]3N)nc(C)n(-c2ccc(F)c(F)c2Cl)c1=O` [Compound 113, 6-[(1S)-1-amino-1,3-dihydrospiro[indene-2,4′-piperidin]-1′-yl)-3-(2-chloro-3,4-difluorophenyl)-2,5-dimethyl-3,4-dihydropyrimidin-4-one], in that order: 6 nM and 15 nM.
For `Cc1c(N2CCC3(CC2)Cc2ccccc2[C@H]3N)nc(C)n(-c2cccc(F)c2Cl)c1=O` [Compound 112, 6-[(1S)-1-amino-1,3-dihydrospiro[indene-2,4′-piperidin]-1′-yl]-3-(2-chloro-3-fluorophenyl)-2,5-dimethyl-3,4-dihydropyrimidin-4-one], in that order: 4 nM and 14 nM.

These data come from US11001561B2, “Pyrimidinone derivatives as SHP2 antagonists” (MERCK PATENT GMBH, priority 2019, dated 2021).
